The values below are quoted from earlier work in patent US8709498B2, “Method of stimulating tissue healing” (priority 2001, dated 2014).

Like-named read-outs stand apart in the source and are kept apart here.

For one data set, the system named is mouse macrophages. To be noted: abolished by nitrite excess.
The next data set concerns human skin fibroblasts. The conditions noted are these: human skin fibroblasts in vitro.
In data set [1] the test system is human fibroblasts.
The subject of another data set is endothelial cells. The conditions noted are these: in vitro, (HOCl)=35 μM.
Data set [2] relates to endothelial cells of the human umbilical vein. The conditions noted are these: HOCl 5 nM/1.2×10^5 cells, in vitro; no cell death.
For data set [3], the system named is polymorphonuclear neutrophils. The conditions noted are these: read-out: IC50, chemiluminescence decrease.
In data set [4] the test system is polymorphonuclear neutrophils. The conditions noted are these: HOCl 250 μM.
The test system of data set [5] is rat macrophage like-cells RAW 264.7.
The test system of data set [6] is human macrophages, fibroblasts and keratinocytes.
In data set [7] the test system is macrophages. To be noted: (NaOCl)=1.0075 mM, after two hours of contact in vitro.
In data set [8] the test system is human fibroblasts. This is another data set of the same source.
The subject of data set [9] is macrophages.
The next data set relates to rat RAW264.7 cells. The conditions noted are these: for Km: read-out: Km of take-up.
The next data set deals with TNF-α. The conditions noted are these: dose-dependent.
In a further data set the test system is IL-1α. To be noted: all stimulation levels.
Another data set concerns IL-6. The conditions noted are these: rheumatoid arthritis fibroblast-like synoviocytes.
In a further data set the test system is IL-8. The conditions noted are these: rheumatoid arthritis fibroblast-like synoviocytes.
Experiment in data set [10]: not given
The source holds these as a separate data set.

Data set [11] deals with human synoviocytes-like fibroblastes. The conditions noted are these: (TauCl)=400-500 μM.
In another data set the test system is mouse dendritic cells. The conditions noted are these: incubated 24 hours.
Data set [12] deals with macrophages or macrophage-line cells.

The IC50 is the concentration that inhibits the measured activity by half. With `OCl` [HOCl, hypochlorous acid], in the data set with mouse macrophages, the “HOCl concentration above which cell death increases significantly” value is reported as over 0.125 mM. Further, in the data set with human endothelial cells (exposition time-dependent), the “HOCl concentration above which cell toxicity increases progressively” value was over 25 µM. In addition, the “HOCl concentration that is not toxic” value in the data set with human endothelial cells (human endothelial cells in vitro) is at most 25 µM. Further, the “HOCl concentration with cell contractions, rounding and loss of adherence” value in the data set on human endothelial cells (rounded within 10 minutes, majority lost adherence after three hours) was 50 µM. In the data set with human skin fibroblasts, the “concentration that does not alter viability or induce cytotoxicity or cell apoptose” value is under 50 µM. Further, the “HOCl molecules taken up within the first 10 minutes” value in the data set with human fibroblasts [1] is given as about 80%. Moreover, in the data set on endothelial cells, the “HOCl molecules taken up within 15 minutes” value is 100% and the “HOCl molecules taken up within ½ minute” value is on record as 50%. For the same molecule, the “effect on cell growth” value in [2] is on record as “temporary stop of cell growth”. In data set [3], the IC50 is 100 µM. In [4], the “effect on hydrogen peroxide production” value was “inhibits”.
With `OCl` [NaOCl, sodium hypochlorite], the stability entry (levels below 5 g/l of available chlorine) is on record as “under 2 weeks”. Besides, the “stability of NaOCl oxidative activity” value (pH value between 10 and 10.5 (EP 0471129 A1)) was “greater than 24 months”. Where the note is “temperature increased to 37° C.”, the NaOCl stability entry was “below 24 hours”. In addition, the “NaOCl concentration at which cell viability is highly altered (irreversible)” value in data set [5] is given as 1 mM. In addition, in [6], the “NaOCl concentration at which toxicity can be neutralized by an antioxidant addition” value is under 3.358 mM, the “NaOCl concentration at which toxicity is very low with an antioxidant presence” value is reported as under 1.679 mM and the “NaOCl concentration with high toxicity” value was over 6.7165 mM. Also, the “NaOCl concentration at which toxicity cannot be neutralized by antioxidants” value in [6] (antioxidants at physiological concentrations) is recorded as 13.433 mM. Further, in the data set with macrophages [7], the cells alive is listed as 95% and the “cells that keep their adherence to substrates” value is given as 40%. Moreover, the NaOCl concentration at which cell morbidity is complete in the data set with human fibroblasts [8] was 16.8 mM. Moreover, in the data set on human fibroblasts [8] (67,165 μmol/l<(NaOCl)<671,655 μmol/l), the cells alive is recorded as 100%. For the same molecule, the NaOCl concentration of highest efficiency in stimulating growth and cell proliferation with human fibroblasts [8] (FCS presence (2%)) is 33.6 µM. The NaOCl concentration at which viability is not altered and growth and proliferation are stimulated with human fibroblasts [8] (FCS presence (2%), 24 hours of exposure) is under 672 µM. Besides, in the data set on human fibroblasts [8] (observed for 24 hours after a 15-minute exposition), the “NaOCl concentration at which cell viability is altered” value is ≥ 1,0075 mM.
Take `O=C(O)[C@H](CO)NCl` [SerCl, Serine N-chloramine]: the “inhibition of nitric oxide generation” value in the data set with macrophages [9] ((SerCl)=300 μM, after 24 hours) was 22%; in the data set on macrophages [9] ((SerCl)=300 μM, immediately after its preparation) it was 85%.
The term Km denotes the substrate concentration at which the rate is half of its maximum. On to `O=S(=O)(O)CCNCl` [TauCl, taurine N-chloramine], for which the “concentration that does not alter viability or induce cytotoxicity or cell apoptose” value in the data set with human skin fibroblasts was at most 100 µM. In addition, the results for the Vmax of take-up with rat RAW264.7 cells (LPS-stimulated macrophages) and in the data set on rat RAW264.7 cells (relaxed rat RAW264.7 cells) were 82.6 pmol/min/10^6 cells and 51.3 pmol/min/10^6 cells, respectively. The Km with rat RAW264.7 cells (LPS-stimulated macrophages) is 45.9 µM; in the data set on rat RAW264.7 cells (relaxed rat RAW264.7 cells) it was 23.3 µM. Moreover, the bactericidal activity result with E. Coli is listed as “very low bactericidal activity”. In the data set with rat DCs ((TauCl)=250 μM), the “TNF-α and ROS generation” value is reported as “not inhibited”. The “production of IL-10, IL-12, PGE2 and nitric oxide” value in the data set with rat DCs ((TauCl)=250 μM) was “inhibits”. In addition, in the data set on rat DCs ((TauCl)=500 μM, two hours pre-incubated), the “release of ROS, nitric oxide, PGE2, TNF-α, IL-6, IL-10 and IL-12” value was “almost completely inhibits”. Also, the “release of IL-2 and IL-6” value in the data set on T cells was “inhibits”. For the same molecule, the entries for the “inhibition of nitric oxide generation” value in the data set with macrophages [9] (100 µM) and with macrophages [9] (600 µM) were 8-22% and 98%, respectively. The “IC60, TNF-α transcriptional velocity” value with TNF-α is 400 µM. In addition, the “effect on IL-1α production” value with IL-1α was “no effect”. Besides, the IC50 is 550 µM in [3], about 225 µM with IL-6 and about 450 µM in the data set on IL-8. Besides, the “effect on hydrogen peroxide production” value in [4] was “no effect”. In the data set on AP-1 ((TauCl)=250 μM), the “AP-1 DNA-bonding” value was “without altering”. Further, in the data set with AP-1 (TauCl 500 μM), the “DNA-bonding activity of AP-1” value was “decreases”. The oxidative activity decrease entry in [10] (physiological pH (7.4), 37° C.) is recorded as “below 5 %/hour”. Besides, the viability preserved in [11] is at least 95%. Moreover, the “TauCl concentration at which cell viability (mitochondrial activity) is not altered” value in the data set with mouse T cells was 30 to 300 µM. In the data set on mouse T cells, the “TauCl concentration that is cytotoxic” value was 300 µM. Besides, in the data set on mouse dendritic cells, the “TauCl concentration above which cell viability decreases significantly” value is on record as over 0.5 mM. Moreover, the “TauCl concentration that alters cell viability” value in data set [12] is recorded as over 1 mM.
Consider `O=S(=O)([O-])CCNCl.[Na+]` [taurine N-chloramine sodium salt], for which, in data set [10] (aqueous solution, pH=8.3), the “stability decrease in 15 days” value is given as “around 30%”, the “stability decrease in 65 days” value is on record as “around 61%” and the “stability decrease per day after the first 15 days” value was “around 0.71 % per day”.
`NCCS(=O)(=O)O` [taurine]: in the data set with rat RAW264.7 cells (LPS-stimulated macrophages), the Vmax of take-up is recorded as 116.3 pmol/min/10^6 cells and the Km was 17.3 µM. Also, in the data set on rat RAW264.7 cells (relaxed rat RAW264.7 cells), the Vmax of take-up is listed as 90.9 pmol/min/10^6 cells and the Km is 28.1 µM. Besides, the “effect on nitric oxide generation” value with macrophages [9] (taurine alone) is “without effect”.
